Test results as given in patent publication US20140357512A1, “HISTONE DEACETYLASE (HDAC) BIOMARKERS IN MULTIPLE MYELOMA” (priority 2013, published 2014).

System: human myeloma cell line MM.1S
Test: SILAC acetylated-lysine peptide profiling, HDAC inhibitor vs DMSO (light/heavy ratio)
Format: cell-based
Source text: An embodiment of the invention comprises utilizing the SILAC method in order to quantitate changes in protein expression between two or more populations of cells. The SILAC method is a technique based on mass spectrometry that detects differences in protein abundance among samples using non-radioactive isotopic labeling. The SILAC method is known in the art, and described in detail in Ong et al., “Stable Isotope Labeling by Amino Acids in Cell Culture, SILAC, as a Simple and Accurate Approach to Expression Proteomics”, Molecular & Cellular Proteomics, vol. 1, pp. 376-386 (2002), which is incorporated herein by reference in its entirety.
Briefly, the SILAC method involves growing two populations of cells in cell culture. The first population of cells is grown in growth media containing normal amino acids (“normal media”). The second population of cells is grown in media lacking a standard essential amino acid (such as lysine), but is then supplemented with a non-radioactive, isotopically labeled form of that essential amino acid (such as lysine labeled with ^13C atoms, rather than normal ^12C atoms), which is called “heavy media”. When the two populations of cells are each growing in the medium, they incorporate the amino acids into all of their proteins. The growth of cells maintained in the heavy media is no different from that in normal media. All peptides containing the heavy amino acids are heavier than their normal counterparts. The cells from each of the two populations of cells are lysed. The lysates from each of the two cell populations are then combined. The combined cell lysates are then analyzed by mass spectrometry. Pairs of chemically identical peptides of different stable isotope composition can be differentiated in a mass spectrometer due to their difference in mass. The ratio of peak intensities in the mass spectrum for such peptide pairs reflects the abundance ratio for the two proteins.
This example describes SILAC studies that were performed to compare the effects of three different HDAC inhibitors (Compound A, Compound B, and tubastatin A) to a control on a human multiple myeloma cell line. The HDAC inhibitors were also compared amongst themselves to determine differences in their effects.
A human myeloma cell line MM.1S was grown using either ^12C (light) or ^13C (heavy) lysine containing culture medium. The “heavy” cells were treated with DMSO as the control, and the “light” cells were treated with a single HDAC inhibitor at 37° C. for 6 hours. The heavy and light cells were lysed, and the lysates were mixed in 1:1 ratio and digested with the protease trypsin. The acetylated lysine containing peptides (due to the action of the HDAC inhibitor) in the digested peptide pool were captured by a non-specific anti-acetylated lysine antibody cocktail (the antibodies identify both light and heavy acetylated peptides), and subjected to mass spectrometry analysis in order to identify thousands of individual peptides.
Thousands of peptides were identified in pairs (^12C and ^13C) due to their known mass differences. The amino acid sequence and quantitative ratio (Light/Heavy) of a given peptide in two differentially treated cell lysates were then determined and annotated with their possible protein (gene) sources.
As stated above, three HDAC inhibitors (Compound A, Compound B, and Tubastatin A) were used. Thus, the SILAC method was performed three times, with a different HDAC inhibitor compared to a control each time. Accordingly, there are three pairs of quantitative data in the table below, i.e., Compound A:DMSO, Compound B:DMSO, and Tubastatin A:DMSO. A cut-off of 1.30 fold of change (increase or decrease) was then used to determine “changed” or “+” in the table, and any peptides with a fold of change less than 1.3 fold were determined to be “unchanged” or “0” in the table. Those peptides that were not identified were marked as “NA” in the table. […]

Compound: O=C(CCCCCCNC(=O)c1cnc(N(c2ccccc2)c2ccccc2)nc1)NO [Compound A, 2-(diphenylamino)-N-(7-(hydroxyamino)-7-oxoheptyl)pyrimidine-5-carboxamide]
- light to heavy ratio (L/H ratio), log 2 scale, acetylated peptide VGDK(ac)[…] (SEQ ID NO: 773) (10 kDa heat shock protein mitochondrial [70], gene HSPE1, drug:DMSO): 1.00
- light to heavy ratio (L/H ratio) of acetylated peptide AGEATVK(ac)FLK (SEQ ID NO: 580) (39S ribosomal protein L9 mitochondrial [165], gene MRPL9, inhibitor:DMSO): 0.43 log 2
- light to heavy ratio (L/H ratio) of acetylated peptide IQEVLK(ac)HAR (SEQ ID NO: 264) (39S ribosomal protein L20 mitochondrial [26], MRPL20, drug:DMSO): 0.43 log 2
- light to heavy ratio (L/H ratio) of acetylated peptide YIGK(ac)TMDYR (SEQ ID NO: 535) (39S ribosomal protein L24 mitochondrial [100], gene MRPL24, inhibitor:DMSO): −0.39 log 2
- light to heavy ratio (L/H ratio) of acetylated peptide FQK(ac)ELER (SEQ ID NO: 618) (39S ribosomal protein L44 mitochondrial [43], gene MRPL44, inhibitor:DMSO): 0.48 log 2
- light to heavy ratio (L/H ratio) of acetylated peptide FK(ac)LITEDVQGK (SEQ ID NO: 287) (40S ribosomal protein S3a [85], SNORD73A, RPS3A, drug:DMSO): 0.62 log 2
- light to heavy ratio (L/H ratio) of acetylated peptide KDVHMPK(ac)HPELADK (SEQ ID NO: 353) (40S ribosomal protein S10 [31], RPS10, drug:DMSO): 0.00 log 2
- light to heavy ratio (L/H ratio), log 2 scale, acetylated peptide K(ac)FGGPGAR (SEQ ID NO: 768) (40S ribosomal protein S16 [131], gene RPS16, drug:DMSO): 0.97
- light to heavy ratio (L/H ratio) of acetylated peptide NK(ac)[…] (SEQ ID NO: 559) (40S ribosomal protein S17 [49], gene RPS17, RPS17L, inhibitor:DMSO): 0.40 log 2
- light to heavy ratio (L/H ratio) of acetylated peptide ADGIVSK(ac)NF (SEQ ID NO: 599) (40S ribosomal protein S21 [81], gene RPS21, inhibitor:DMSO): 0.46 log 2
- light to heavy ratio (L/H ratio) of acetylated peptide GIVLEK(ac)VGVEAK (SEQ ID NO: 320) (40S ribosomal protein S23 [54], RPS23, drug:DMSO): 1.00 log 2
- light to heavy ratio (L/H ratio), log 2 scale, acetylated peptide K(ac)FGQGSR (SEQ ID NO: 809) (40S ribosomal protein S29 [13], gene RPS29, drug:DMSO): 1.00
- light to heavy ratio (L/H ratio), log 2 scale, acetylated peptide ATWK(ac)SNYFLK (SEQ ID NO: 760) (60S acidic ribosomal protein P0 [10], gene RPLP0, drug:DMSO): 0.91
- light to heavy ratio (L/H ratio), log 2 scale, acetylated peptide ALEK(ac)IDLK (SEQ ID NO: 813) (60S ribosomal protein L3 [362], gene SNORD43, RPL3, drug:DMSO): 1.00
- light to heavy ratio (L/H ratio) of acetylated peptide IPK(ac)HLTDAYFK (SEQ ID NO: 259) (60S ribosomal protein L6 [211], RPL6, drug:DMSO): 0.40 log 2
- light to heavy ratio (L/H ratio), log 2 scale, acetylated peptide AVDSQILPK(ac)IK (SEQ ID NO: 761) (60S ribosomal protein L6 [261], gene RPL6, drug:DMSO): 0.92
- light to heavy ratio (L/H ratio) of acetylated peptide HGYIK(ac)GIVK (SEQ ID NO: 556) (60S ribosomal protein L8 [42], gene RPL8, inhibitor:DMSO): 0.40 log 2
- light to heavy ratio (L/H ratio) of acetylated peptide IDK(ac)PILK (SEQ ID NO: 506) (60S ribosomal protein L8 [177], gene RPL8, inhibitor:DMSO): −0.65 log 2
- light to heavy ratio (L/H ratio) of acetylated peptide GPLDK(ac)WR (SEQ ID NO: 622) (60S ribosomal protein L10-like [208], gene RPL10L, inhibitor:DMSO): 0.48 log 2
- light to heavy ratio (L/H ratio), log 2 scale, acetylated peptide YMVK(ac)SCGK (SEQ ID NO: 811) (60S ribosomal protein L10 [78], gene SNORA70, RPL10, drug:DMSO): 1.00
- light to heavy ratio (L/H ratio), log 2 scale, acetylated peptide VDEVK(ac)STIK (SEQ ID NO: 805) (60S ribosomal protein L10a [152], gene RPL10A, drug:DMSO): 1.00
- light to heavy ratio (L/H ratio) of acetylated peptide VITEEEK(ac)NFK (SEQ ID NO: 522) (60S ribosomal protein L13 [174], gene RPL13, inhibitor:DMSO): −0.46 log 2
- light to heavy ratio (L/H ratio) of acetylated peptide LAAIVAK(ac)QVLLGR (SEQ ID NO: 505) (60S ribosomal protein L13a [25], gene SNORD32A, RPL13A, SNORD33, SNORD34, inhibitor:DMSO): −0.67 log 2
- light to heavy ratio (L/H ratio) of acetylated peptide K(ac)FAYLGR (SEQ ID NO: 614) (60S ribosomal protein L13a [134], gene SNORD32A, RPL13A, SNORD33, SNORD34, inhibitor:DMSO): 0.47 log 2
- light to heavy ratio (L/H ratio), log 2 scale, acetylated peptide LAHEVGWK(ac)[…] (SEQ ID NO: 812) (60S ribosomal protein L13a [148], gene SNORD32A, RPL13A, SNORD33, SNORD34, drug:DMSO): 1.00
- light to heavy ratio (L/H ratio) of acetylated peptide […](ac)PVHK (SEQ ID NO: 581) (60S ribosomal protein L15 [153], gene RPL15, inhibitor:DMSO): 0.43 log 2
- light to heavy ratio (L/H ratio) of acetylated peptide GHK(ac)FHHTIGGSR (SEQ ID NO: 519) (60S ribosomal protein L15 [179], gene RPL15, inhibitor:DMSO): −0.51 log 2
- light to heavy ratio (L/H ratio), log 2 scale, acetylated peptide SFVK(ac)[…] (SEQ ID NO: 770) (60S ribosomal protein L27 [73], gene RPL27, drug:DMSO): 0.99
- light to heavy ratio (L/H ratio), log 2 scale, acetylated peptide YSVDIPLDK(ac)TVVNK (SEQ ID NO: 807) (60S ribosomal protein L27 [93], gene RPL27, drug:DMSO): 1.00
- light to heavy ratio (L/H ratio), log 2 scale, acetylated peptide TVVNK(ac)DVFR (SEQ ID NO: 766) (60S ribosomal protein L27 [98], gene RPL27, drug:DMSO): 0.94
- light to heavy ratio (L/H ratio) of acetylated peptide NCSSFLIK(ac)R (SEQ ID NO: 558) (60S ribosomal protein L28 [19], gene RPL28, inhibitor:DMSO): 0.40 log 2
- light to heavy ratio (L/H ratio) of acetylated peptide IHGVGFK(ac)K (SEQ ID NO: 542) (60S ribosomal protein L31 [39], gene RPL31, inhibitor:DMSO): 0.39 log 2
- light to heavy ratio (L/H ratio), log 2 scale, acetylated peptide LNK(ac)AVWAK (SEQ ID NO: 808) (60S ribosomal protein L31 [70], gene RPL31, drug:DMSO): 1.00
- light to heavy ratio (L/H ratio) of acetylated peptide […](ac)ENLR (SEQ ID NO: 610) (60S ribosomal protein L35 [66], gene RPL35, inhibitor:DMSO): 0.47 log 2
- light to heavy ratio (L/H ratio) of acetylated peptide LWSK(ac)AIFAGYK (SEQ ID NO: 538) (60S ribosomal protein L35a [8], gene RPL35A, inhibitor:DMSO): 0.38 log 2
